From US6875760B2 (Novo Nordisk A/S, priority 1999, dated 2005) come the findings set out here.

This test concerns the target T1, cloned human glucagon receptor (Homo sapiens, UniProt P47871).
T1 construct: expressed in transfected cells; plasma membrane preparation
Briefly: Glucagon Binding Assay (II). The note with it: plasma membranes of BHK cells expressing the receptor; read-out: Glu Bd Assay (II) IC50.

T1 sequence (P47871 26-477): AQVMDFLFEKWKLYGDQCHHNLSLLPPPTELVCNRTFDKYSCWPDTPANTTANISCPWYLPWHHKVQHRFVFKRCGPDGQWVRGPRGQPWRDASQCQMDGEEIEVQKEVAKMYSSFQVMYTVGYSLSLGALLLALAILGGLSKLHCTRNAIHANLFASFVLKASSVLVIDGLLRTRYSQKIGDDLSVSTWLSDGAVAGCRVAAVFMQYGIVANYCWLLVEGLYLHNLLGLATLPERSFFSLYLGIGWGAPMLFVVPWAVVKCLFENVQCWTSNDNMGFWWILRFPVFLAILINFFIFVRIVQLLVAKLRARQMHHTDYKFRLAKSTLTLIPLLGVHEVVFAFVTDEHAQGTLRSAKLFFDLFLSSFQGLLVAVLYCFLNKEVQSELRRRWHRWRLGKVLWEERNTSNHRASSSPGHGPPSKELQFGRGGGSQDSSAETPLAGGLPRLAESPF

For orientation: IC50 means the concentration needed to halve the response being measured. Turning to `O=C(O)CCNC(=O)c1ccc(CN(C(=O)Nc2ccc(OC(F)(F)F)cc2)C2CC2c2ccccc2)cc1` (centres unmarked) [Example 231, 3-{4-[1-(2-Phenylcyclopropyl)-3-(4-trifluoromethoxyphenyl)ureidomethyl]benzoylamino}propionic acid], the half-maximal inhibitory concentration (IC50) was found to be 349 nM.

For the compound `O=C(O)CCNC(=O)c1ccc(CN(C(=O)Nc2ccc(SC(F)(F)F)cc2)c2ccc(C3CCCCC3)cc2)cc1` [Example 233, 3-{4-[1-(4-Cyclohexylphenyl)-3-(4-trifluoromethylsulfanylphenyl)ureidomethyl]benzoylamino}propionic acid], the half-maximal inhibitory concentration (IC50) was 20 nM.

As for `CC1(C)[C@@H]2CC[C@@H](CN(Cc3ccc(C(=O)NCCC(=O)O)cc3)C(=O)Nc3ccc(OC(F)(F)F)cc3)[C@@H]1C2` [Example 234, 3-{4-[1-([(1S,2R,5R)-6,6-Dimethylbicyclo[3.1.1]hept-2-yl]methyl)-3-(4-trifluoromethoxyphenyl)ureidomethyl]benzoylamino}propionic acid], the IC50 was 112 nM.

Regarding `CC(C)(C)[C@H]1CC[C@H](N(Cc2ccc(C(=O)NCCC(=O)O)cc2)C(=O)Nc2ccc(SC(F)(F)F)cc2)CC1` [Example 235], the 50% inhibitory concentration (IC50) amounted to 14 nM.

As for `CC(C)(C)C1CCC(N(Cc2ccc(C(=O)NCCC(=O)O)cc2)C(=O)Nc2ccc(Cl)c(C(F)(F)F)c2)CC1` (centres unmarked) [Example 236], the IC50 stood at 29 nM.

With `CC(C)(C)C1CCC(N(Cc2ccc(OC(F)(F)F)cc2)Cc2ccc(C(=O)NCCC(=O)O)cc2)CC1` (centres unmarked) [Example 385, 3-(4-{[(4-tert-Butylcyclohexyl)-(4-trifluoromethoxybenzyl)amino]methyl}benzoylamino)propionic acid], the IC50 is 33 nM.

Consider `O=C(O)CCNC(=O)c1ccc(CN(Cc2ccc(OC(F)(F)F)cc2)c2ccc(C3CCCCC3)cc2)cc1` [Example 386, 3-(4-{[(4-Cyclohexylphenyl)-(4-trifluoromethoxybenzyl)amino]methyl}benzoylamino)propionic acid], for which the IC50 was found to be 102 nM.

In the case of `O=C(O)CCNC(=O)c1ccc(CN(Cc2ccc(OC(F)(F)F)cc2)[C@H]2CC[C@H](C3CCCCC3)CC2)cc1` [Example 387, 3-(4-{[(trans-4-cyclohexylcyclohexyl)-(4-trifluoromethoxybenzyl)amino]methyl}benzoylamino)propionic acid], the concentration for half-maximal inhibition (IC50) was determined as 111 nM.

As for `O=C(Nc1nn[nH]n1)c1ccc(CN(Cc2ccc(OC(F)(F)F)cc2)c2ccc(C3CCCCC3)cc2)cc1` [Example 388, 4-{[(4-Cyclohexylphenyl)-(4-trifluoromethoxybenzyl)amino]methyl}-N-(2H-tetrazol-5-yl)benzamide], the concentration for half-maximal inhibition (IC50) was determined as 156 nM.

In the case of `CC(C)S(=O)(=O)Cc1cccc(NC(=O)N(Cc2ccc(C(=O)Nc3nn[nH]n3)cc2)c2ccc(C3CCCCC3)cc2)c1` [Example 389, 4-{1-(4-Cyclohexylphenyl)-3-[3-(propane-2-sulfonylmethyl)phenyl]ureidomethyl}-N-(2H-tetrazol-5-yl)benzamide], the half-maximal inhibitory concentration (IC50) was found to be 337 nM.

Regarding `O=C(O)CCNC(=O)c1ccc(CN(C(=O)NCc2cc(Cl)cc(Cl)c2)c2ccc(C3CCCCC3)cc2)cc1` [Example 395, 3-{4-[1-(4-Cyclohexylphenyl)-3-(3,5-dichlorobenzyl)ureidomethyl]benzoylamino}propionic acid], the IC50 was 153 nM.

`O=C(Nc1nn[nH]n1)c1ccc(CN(C(=O)Nc2ccc3c(c2)OC(F)(F)C(F)(F)O3)c2ccc(C3CCCCC3)cc2)cc1` [Example 396, 4-[1-(4-Cyclohexylphenyl)-3-(2,2,3,3-tetrafluoro-2,3-dihydrobenzo[1,4]dioxin-6-yl)ureidomethyl]-N-(2H-tetrazol-5-yl)benzamide]: the IC50 was determined as 13 nM.

Turning to `O=C(O)CCNC(=O)c1ccc(CN(Cc2ccc(OC(F)(F)F)cc2)[C@H]2CC[C@@H](C3CCCCC3)CC2)cc1` [Example 570, 3-(4-{[(cis-4-Cyclohexylcyclohexyl)-(4-trifluoromethoxybenzyl)amino]methyl}benzoylamino)propionic acid], the IC50 was 44 nM.

In the case of `O=C(Nc1nn[nH]n1)c1ccc(CN(Cc2ccc(OC(F)(F)F)cc2)[C@H]2CC[C@@H](C3CCCCC3)CC2)cc1` [Example 572, 4-({(4-cis-Cyclohexylcyclohexyl)-[4-(trifluoromethoxy)benzyl]amino}methyl)-N-(2H-tetrazol-5-yl)benzamide], the IC50 worked out at 166 nM.

For `O=C(NCc1nn[nH]n1)c1ccc(CN(Cc2ccc(OC(F)(F)F)cc2)[C@H]2CC[C@@H](C3CCCCC3)CC2)cc1` [Example 573, 4-({(4-cis-Cyclohexylcyclohexyl)-[4-(trifluoromethoxy)benzyl]amino}methyl)-N-(2H-tetrazol-5-ylmethyl)benzamide], the IC50 is 152 nM.

As to `O=C(Nc1nn[nH]n1)c1ccc(CN(Cc2ccc(OC(F)(F)F)cc2)[C@H]2CC[C@H](C3CCCCC3)CC2)cc1` [Example 574, 4-({(trans-4-Cyclohexylcyclohexyl)-[4-(trifluoromethoxy)benzyl]amino}methyl)-N-(2H-tetrazol-5-yl)benzamide], the IC50 is 159 nM.

For the compound `O=C(Nc1nn[nH]n1)c1ccc(CN(C(=O)Nc2ccc(OC(F)(F)F)cc2)[C@H]2CC[C@@H](C3CCCCC3)CC2)cc1` [Example 575, 4-[1-(4-cis-Cyclohexylcyclohexyl)-3-(4-trifluoromethoxyphenyl)ureidomethyl]-N-(2H-tetrazol-5-yl)benzamide], the half-inhibitory concentration (IC50) came to 15 nM.

Consider `O=C(Nc1nn[nH]n1)c1ccc(CN(C(=O)Nc2ccc(OC(F)(F)F)cc2)[C@H]2CC[C@H](C3CCCCC3)CC2)cc1` [Example 576, 4-[1-(4-trans-Cyclohexylcyclohexyl)-3-(4-trifluoromethoxyphenyl)ureidomethyl]-N-(2H-tetrazol-5-yl)benzamide], for which the 50% inhibitory concentration (IC50) is 4 nM.

As for `O=C(O)CCNC(=O)c1ccc(CN(C(=O)Nc2ccc(OC(F)(F)F)cc2)C2CCC(C3CCCCC3)CC2)cc1` (centres unmarked) [Example 577, 3-{4-[1-(4-Cyclohexylcyclohexyl)-3-(4-trifluoromethoxyphenyl)ureidomethyl]benzoylamino}propionic acid], the concentration for half-maximal inhibition (IC50) came out at 18 nM.

In the case of `CC(C)(C)[C@H]1CC[C@H](N(Cc2ccc(C(=O)NCCC(=O)O)cc2)Cc2cc(Cl)cc(Cl)c2)CC1` [Example 580, 3-(4-{[(trans-4-tert-Butylcyclohexyl)-(3,5-dichlorobenzyl)amino]methyl}benzoylamino)propionic acid], the IC50 was found to be 57 nM.

`O=C(O)CCNC(=O)c1ccc(CN(Cc2cccc(Br)c2)c2ccc(C3CCCCC3)cc2)cc1` [Example 581, 3-(4-{[(3-Bromobenzyl)-(4-cyclohexylphenyl)amino]methyl}benzoylamino)propionic acid]: the IC50 was determined as 142 nM.

Take `O=C(O)CCNC(=O)c1ccc(CN(Cc2cc(Cl)cc(Cl)c2)c2ccc(C3CCCCC3)cc2)cc1` [Example 582, 3-(4-{[(4-Cyclohexylphenyl)-(3,5-dichlorobenzyl)amino}methyl]benzoylamino)propionic acid]: the IC50 worked out at 108 nM.

In the case of `O=C(O)CCNC(=O)c1ccc(CN(Cc2cccc(Cl)c2)c2ccc(C3CCCCC3)cc2)cc1` [Example 583], the half-maximal inhibitory concentration (IC50) was 205 nM.

With `O=C(Nc1nn[nH]n1)c1ccc(CN(Cc2cccc(Br)c2)c2ccc(C3CCCCC3)cc2)cc1` [Example 584, 4-{[(3-Bromobenzyl)-(4-cyclohexylphenyl)amino]methyl}-N-(2H-tetrazol-5-yl)benzamide], the IC50 was 284 nM.

Regarding `O=C(Nc1nn[nH]n1)c1ccc(CN(Cc2cccc(Cl)c2)c2ccc(C3CCCCC3)cc2)cc1` [Example 585, 4-{[(3-Chlorobenzyl)-(4-cyclohexylphenyl)amino]methyl}-N-(2H-tetrazol-5-yl)benzamide], the concentration for half-maximal inhibition (IC50) was found to be 322 nM.

Regarding `CC(C)(C)[C@H]1CC[C@H](N(Cc2ccc(C(=O)NCCC(=O)O)cc2)C(=O)c2ccc(OC(F)(F)F)cc2)CC1` [Example 586, 3-(4-{[(trans-4-tert-Butylcyclohexyl)-(4-trifluoromethoxybenzoyl)amino]methyl}benzoylamino)propionic acid], the half-inhibitory concentration (IC50) is 874 nM.

As to `CCCCOc1ccc(C(=O)NN(Cc2ccc(C(=O)NCCC(=O)O)cc2)C2Cc3ccccc3C2)cc1` [Example 587, 3-{4-[N′-(4-Butoxybenzoyl)-N-indan-2-ylhydrazinomethyl]benzoylamino}propionic acid], the IC50 worked out at 692 nM.

As to `CC(C)(C)[C@H]1CC[C@@H](N(Cc2ccc(C(=O)NCCC(=O)O)cc2)NC(=O)c2cc(Cl)cc(Cl)c2)CC1` [Example 588, 3-{4-[N-(cis-4-tert-Butylcyclohexyl)-N′-(3,5-dichlorobenzoyl)hydrazinomethyl]benzoylamino}propionic acid], the half-inhibitory concentration (IC50) worked out at 75 nM.

Regarding `CC(C)(C)[C@H]1CC[C@@H](N(Cc2ccc(C(=O)NCCC(=O)O)cc2)NC(=O)c2ccc(F)c(F)c2)CC1` [Example 589, 3-{4-[N-(cis-4-tert-Butylcyclohexyl)-N′-(3,4-difluorobenzoyl)hydrazinomethyl]benzoylamino}propionic acid], the concentration for half-maximal inhibition (IC50) amounted to 541 nM.

For `CC(C)(C)[C@H]1CC[C@@H](N(Cc2ccc(C(=O)NCCC(=O)O)cc2)NC(=O)c2cccc(OC(F)(F)F)c2)CC1` [Example 590, 3-{4-[N-(cis-4-tert-Butylcyclohexyl)-N′-(3-trifluoromethoxybenzoyl)hydrazinomethyl]benzoylamino}propionic acid], the IC50 turned out to be 224 nM.

Regarding `Cc1cc(C)c(Cc2ccc(C(=O)NN(Cc3ccc(C(=O)NCCC(=O)O)cc3)[C@H]3CC[C@@H](C(C)(C)C)CC3)o2)c(C)c1` [Example 591, 3-(4-{N-(cis-4-tert-Butylcyclohexyl)-N′-[5-(2,4,6-trimethylbenzyl)furan-2-carbonyl]hydrazinomethyl}benzoylamino)propionic acid], the IC50 is 4 nM.

With `Cc1cc(C)c(Cc2ccc(C(=O)NN(Cc3ccc(C(=O)NCCC(=O)O)cc3)c3ccc(C4CCCCC4)cc3)o2)c(C)c1` [Example 592, 3-(4-{N-(4-Cyclohexylphenyl)-N′-[5-(2,4,6-trimethylbenzyl)furan-2-carbonyl]hydrazinomethyl}benzoylamino)propionic acid], the IC50 turned out to be 16 nM.
